Test system: Zymosan-induced knee joint inflammation / hyperalgesia
Test: Model of joint inflammation: Zymosan-induced knee joint inflammation, secondary hyperalgesia (plantar test)
Format: in vivo
Conditions: male hamster, 1 ng/joint injected into the joint one hour before first Zymosan injection; 3 Zymosan injections; measured from 4 hours and during following 3 weeks
Method: The compounds of the invention are tested in a model of joint inflammation.
The compound (1 ng/joint as a suspension in 10 μL of a solution of 2% PVP (polyvinylpyrrolidone)/1% lutrol F68/0.9% NaCl) according to the invention is injected one hour before the first injection of Zymosan® (see below) into the joint of a hamster.
Induction of a knee joint inflammation: Under light anaesthesia using isofluran, a suspension of Zymosan® at a dose of 100 μg in 10 μL of saline solution is injected into the knee joint of a male hamster. Zymosan® is a yeast extract which produces a strong dose-dependent inflammation when subcutaneously injected. Under the experimental conditions described herein (injection into the knee joint), it induces a hyperalgesia lasting for a week. In order to extend this period, 3 consecutive injections of Zymosan® were applied. The lag time to paw withdrawal, following exposure of the plantar skin to a defined heat stimulus, is measured using apparatus (Plantar Test Ugo Basile Biological Research Apparatus, Comerio, Italy) comprising a mini-camera to ensure the correct positioning of the infrared ray below the hind leg of interest.
Measurement of Secondary Hyperalgesia:
The timer, which measures the length of time the infrared light is reflected by the hind leg, is started by the investigator and stops automatically as soon as the animal shakes or pulls away its leg. […]

Row | Compound | reduction of pain (lag time to leg withdrawal, secondary hyperalgesia)
1 | CCCCCc1cc(CCN2CCN(c3cccc(C(F)(F)F)c3)CC2)ccc1C.CCCCCc1cc(CCN2CCN(c3cccc(C(F)(F)F)c3)CC2)ccc1C.O=C(O)c1cc2ccccc2c(Cc2c(O)c(C(=O)O)cc3ccccc23)c1O [compound 1, 1-(3-trifluoromethylphenyl)-4-[2-(4-methyl-3-pentylphenyl)ethyl]piperazine hemipamoate] | effective reduction of pain over a 3-week period

Test system: tactile allodynia after spare nerve injury
Test: Model of neuropathic pain: anti-allodynic effect in the spare nerve injury (SNI), von Frey test
Format: in vivo
Conditions: male C57B6 mice, 7 days after surgery, 1 mg/kg i.v., from 1 h to 6 h after administration
Method: The compounds of the invention are also tested in a model of neuropathic pain: measurement of the anti-allodynic effect in the spare nerve injury (SNI).
In this in vivo model of mice suffering from chronic neuropathic pain, the effect on tactile allodynia, a painful sensation induced after a mechanical stimulus not normally painful, is triggered in the hind leg by surgical lesion of the great sciatic nerve. It is then determined by measuring the paw withdrawal threshold (PWT), i.e. the applied force (expressed in grams) at which the mouse withdraws its hind leg.
Tactile allodynia is determined on both hind legs, i.e. homolaterally and controlaterally to the lesion determined following surgery, with the automatic von Frey test, in which the plantar skin of the hind legs is exposed to a pressure stimulus of increasing intensity reaching 5 grams, using a discharge needle prod. […]
Trial groups using the compounds according to the invention and a control group of animals were used, each being composed of four male C57B6 mice. In each group, the baseline of the PWT values (BL) was determined before surgery. […]
7 days after surgery, just before the administration of the compound, i.e. at 0 h, and in all the groups, the PWT values were determined for the homolateral hind leg (injured) and the controlateral hind leg (non-injured). […]

Row | Compound | reduction of pain (anti-allodynic effect, paw withdrawal threshold PWT)
2 | CCCCCc1cc(CCN2CCN(c3cccc(C(F)(F)F)c3)CC2)ccc1C.CCCCCc1cc(CCN2CCN(c3cccc(C(F)(F)F)c3)CC2)ccc1C.O=C(O)c1cc2ccccc2c(Cc2c(O)c(C(=O)O)cc3ccccc23)c1O [compound 1, 1-(3-trifluoromethylphenyl)-4-[2-(4-methyl-3-pentylphenyl)ethyl]piperazine hemipamoate] | statistically significant reduction of pain

Test system: TNF-α
Test: Synthesis of TNF-α induced in Sprague-Dawley rats by LPS from Escherichia coli
Format: in vivo
Conditions: male Sprague-Dawley rats, oral administration; LPS i.v. 0.1 mg/Kg two hours later; serum TNF-α 1.5 hours after LPS
Method: The test products are administered orally to groups of ten male Sprague-Dawley rats weighing about 200 grams. Two hours later, LPS is administered intravenously (0.1 mg/Kg). The blood of each animal is collected 1.5 hours after the LPS administration. The samples are centrifuged, and the serum is recovered and frozen at −80° C. The TNF-α is measured using commercial kits (RPN 2744 Amersham, UK).

Row | Compound | IC50, inhibiting the synthesis of TNF-α [mg/kg]
3 | CCCCCc1cc(CCN2CCN(c3cccc(C(F)(F)F)c3)CC2)ccc1C.CCCCCc1cc(CCN2CCN(c3cccc(C(F)(F)F)c3)CC2)ccc1C.O=C(O)c1cc2ccccc2c(Cc2c(O)c(C(=O)O)cc3ccccc23)c1O [compound 1, 1-(3-trifluoromethylphenyl)-4-[2-(4-methyl-3-pentylphenyl)ethyl]piperazine hemipamoate] | 0.3
4 | CCCCCc1cc(CCN2CCN(c3cccc(C(F)F)c3)CC2)ccc1C.Cl [compound 8, 1-(3-difluoromethylphenyl)-4-[2-(4-methyl-3-pentylphenyl)-ethyl]piperazine hydrochloride] | 1
5 | CCCCCc1cc(CCN2CCN(c3cccc(F)c3)CC2)ccc1C.Cl [compound 4, 1-(3-fluorophenyl)-4-[2-(4-methyl-3-pentylphenyl)ethyl]-piperazine hydrochloride] | 1

Test system: TNF-α
Test: Synthesis of TNF-α induced in Balb/c mice by LPS from Escherichia coli
Format: in vivo
Conditions: female Balb/c mice, oral administration; LPS i.v. 10 μg/mouse one hour later; plasma TNF-α 1.5 hours after LPS
Method: The test products are administered orally to groups of five 7- to 8-week-old female Balb/c mice (Charles River, France). One hour later, LPS is administered intravenously (10 μg/mouse). The blood of each animal is collected 1.5 hours after the LPS administration. The samples are centrifuged, and the plasma is recovered and frozen at −80° C. The TNF-α is measured using commercial kits (R & D, Abingdon, UK).

Row | Compound | IC50, inhibiting the synthesis of TNF-α [mg/kg]
6 | CCCCCc1cc(CCN2CCN(c3cccc(C(F)(F)F)c3)CC2)ccc1C.O=C(O)CCC(=O)O [compound 38, 1-(3-trifluoromethylphenyl)-4-[2-(4-methyl-3-pentyl-phenyl)ethyl]piperazine succinate] | 0.1

Test system: not given
Test: not given
Conditions: not given

Row | Compound | melting point [°C]
7 | CCCCCc1cc(CCN2CCN(c3ccc(Cl)cn3)CC2)ccc1C.Cl | 199 to 201
8 | CCCCCc1cc(CCN2CCN(c3ccc(Br)cn3)CC2)ccc1C.Cl.Cl | 190 to 192
9 | CCCCCCCc1cc(CCN2CCN(c3cccc(C(F)(F)F)c3)CC2)ccc1OC.Cl | 214
10 | CCCCCc1cc(CCN2CCN(c3ccc(Cl)cc3)CC2)ccc1C.Cl | 203
11 | CCCCCc1cc(CCN2CCN(c3ccccc3)CC2)ccc1C.Cl | 200 to 202
12 | CCCc1cc(CCN2CCN(c3cccc(C(F)(F)F)c3)CC2)ccc1C.Cl | 198 to 200
13 | CCCCCc1cc(CCN2CCN(c3cccc(C(F)F)c3)CC2)ccc1C.Cl [compound 8, 1-(3-difluoromethylphenyl)-4-[2-(4-methyl-3-pentylphenyl)-ethyl]piperazine hydrochloride] | 182 to 185
14 | CCCCCc1cc(CCN2CCN(c3cccc(C)c3)CC2)ccc1C.Cl.Cl | 226 to 228
15 | CCCCCc1cc(CCN2CCN(c3ccc(OCC)cc3)CC2)ccc1C.Cl.Cl | 228 to 230
16 | CCCCCc1cc(CCN2CCN(c3ccccn3)CC2)ccc1C.Cl.Cl | 183 to 185
17 | CCCCCc1cc(CCN2CCN(c3cccc(F)c3)CC2)ccc1OC.Cl | 174 to 177
18 | CCCCCc1cc(CCN2CCN(c3cccc(C(F)F)c3)CC2)ccc1OC.Cl | 125 to 128
19 | CCCc1cc(CCN2CCN(c3cccc(C(F)(F)F)c3)CC2)ccc1OC.Cl | 184 to 185
20 | CCCCCc1cc(CCN2CCN(c3cccc(C(F)(F)F)n3)CC2)ccc1C.Cl | 161 to 163
21 | CCCCCc1cc(CCN2CCN(c3cccc(Br)n3)CC2)ccc1C.Cl | 185 to 187
22 | CCCCCc1cc(CCN2CCN(c3ccc(F)cc3)CC2)ccc1C.Cl.Cl | > 201
23 | CCCCCCc1cc(CCN2CCN(c3cccc(C(F)(F)F)c3)CC2)ccc1C.Cl | 187
24 | CCCCCc1cc(CCN2CCN(c3ccc(C(F)(F)F)cn3)CC2)ccc1C.Cl.Cl | > 212
25 | CCCCCCCc1cc(CCN2CCN(c3cccc(C(F)(F)F)c3)CC2)ccc1C.Cl | 190 to 192
26 | CCCCCc1cc(CCN2CCN(c3cccc(C(F)(F)F)c3)CC2)ccc1OC.Cl | 146 to 149
27 | CCCCCc1cc(CCN2CCN(c3cccc(OC(F)(F)F)c3)CC2)ccc1C.Cl | 197 to 200
28 | CCCCCc1cc(CCN2CCN(c3ccccc3C)CC2)ccc1C.Cl | 220 to 222
29 | CCCCCc1cc(CCN2CCN(c3cccc(OC)c3)CC2)ccc1C.Cl | 199 to 201
30 | CCCCCc1cc(CCN2CCN(c3cccc(F)c3)CC2)ccc1C.Cl [compound 4, 1-(3-fluorophenyl)-4-[2-(4-methyl-3-pentylphenyl)ethyl]-piperazine hydrochloride] | 215 to 217
31 | CCCCCc1cc(CCN2CCN(c3ccc(C(C)(C)C)cc3)CC2)ccc1C.Cl | 193 to 195
32 | CCCCCc1cc(CCN2CCN(c3ccccc3Cl)CC2)ccc1C.Cl | 200 to 202

Source: US8153637B2, “Phenyl-alkyl piperazines having TNF-modulating activity, preparation method, and therapeutic use thereof” (Sanofi, priority 2008, dated 2012)
